Reference: patent publication US6620844B2, “Method for reducing blood insulin levels by reducing in vivo cathepsin L activity” (NewMillennium Pharmaceutical, Inc., priority 2001, dated 2003)
Non-standard residues stand in square brackets, D forms with d. Residues, ends and D or L forms follow the SMILES beside them. *: point of attachment. Cbz = O=C(OCc1ccccc1)*

Tests used:
[1] = biological target: Cathepsin B (Homo sapiens, UniProt P07858); details: cited from earlier work
[2] = biological target: Cathepsin L (Homo sapiens, UniProt P07711); details: cited from earlier work
[3] = biological target: T1, Cathepsin K (Homo sapiens, UniProt P43235); details: cited from earlier work
T1 sequence (P43235 115-329): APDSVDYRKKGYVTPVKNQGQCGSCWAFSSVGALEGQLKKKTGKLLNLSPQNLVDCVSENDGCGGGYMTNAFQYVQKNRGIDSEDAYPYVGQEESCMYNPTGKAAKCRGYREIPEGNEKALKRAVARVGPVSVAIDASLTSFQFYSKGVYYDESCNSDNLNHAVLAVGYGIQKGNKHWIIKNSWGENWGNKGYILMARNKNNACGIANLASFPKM

[4] = biological target: T2, cathepsin B (Mus musculus, UniProt P10605); assay: Cysteine protease active site labeling in mouse peritoneal macrophages: cathepsin B; assay type: cell-based
T2 construct: endogenous in cells; host or cells: thioglycolate-elicited mouse peritoneal macrophages
Method: (§1) FIG. 1. Cysteine protease inhibition profile by synthetic inhibitors in mouse peritoneal macrophages. [^125I]-Z-Tyr-Ala-CHN2-labeled mouse peritoneal macrophages were lysed and separated onto 12% SDS-PAGE to visualize labeled active cathepsins. Doses and inhibitors used were all indicated.
(§2) Mouse peritoneal macrophages were generated by injecting mice with thioglycolate as described in Shi et al. (2000) J. Exp. Med. 191:[…]. After 3-4 days of incubation, peritoneal microphages were washed out using Tris-EDTA buffers containing 6 mM EDTA (pH 8.0). Cells were then seeded onto 24-well plates in DMEM with 10% FBS till complete spread. After cells were attached to the plates, different doses of inhibitors were added. After 2-3 hours of incubation, cells were labeled with [^125I]-Z-Tyr-Ala-CHN2 overnight at 37° C. to detect intracellular active cysteine proteases. Cells were lysed into 1× reducing protein sample buffer and separated onto 12% SDS-PAGE.
(§3) First, the synthetic small molecule compounds were tested for their selectivity toward different forms of cathepsin. Mouse peritoneal macrophages were cultured in the presence of selective inhibitors and cysteine protease active site labeling probe [^125I]-Z-Tyr-Ala-CHN2 (Sukhova et al., supra). […] In contrast, other inhibitors used had no effect on cathepsin B activity. […] Therefore, these inhibitors can be utilized to test if the aforementioned cathepsins play roles in the breakdown of insulin receptor (IR) or IR turnover.

[5] = biological target: T3, cathepsin L (Mus musculus, UniProt P06797); assay: Cysteine protease active site labeling in mouse peritoneal macrophages: cathepsin L; assay type: cell-based
T3 construct: endogenous in cells; host or cells: thioglycolate-elicited mouse peritoneal macrophages
Method: as §1, §2, §3

[6] = biological target: T4, cathepsin K (Mus musculus, UniProt P55097); assay: Cysteine protease active site labeling in mouse peritoneal macrophages: cathepsin K; assay type: cell-based
T4 construct: endogenous in cells; host or cells: thioglycolate-elicited mouse peritoneal macrophages
T4 sequence (P55097 115-329): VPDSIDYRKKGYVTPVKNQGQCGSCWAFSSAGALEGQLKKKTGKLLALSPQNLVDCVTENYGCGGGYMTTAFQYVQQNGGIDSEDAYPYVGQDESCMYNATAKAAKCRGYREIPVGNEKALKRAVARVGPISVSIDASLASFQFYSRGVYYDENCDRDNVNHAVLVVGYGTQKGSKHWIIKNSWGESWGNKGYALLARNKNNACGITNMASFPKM
Method: as §1, §2, §3

[7] = test system: insulin receptor β subunit; assay: Insulin receptor turnover in human preadipocytes, Western blot; assay type: cell-based; details: for IR turnover: human preadipocytes induced to adipocytes
Method: FIG. 2. […] Human preadipocytes were incubated with and without inhibitors indicated at different doses, lysed, separated onto 7% SDS-PAGE, and probed with goat anti-human insulin receptor β-subunit polyclonal antibodies. Both mature β subunit and its precursor were indicated.
(§4) Human preadipocytes were initially cultured in MSCGM medium (BioWhitaker) at 37° C. and 5% CO2 for 7 to 12 days with 3-4 changes of media till complete confluence. Non-induced cells were kept in adipogenesis maintenance media containing 0.01 mg/ml of insulin, 0.05 units/ml of penicillin, 0.05 μg/ml of streptomycin, and 10% fetal bovine serum. To induce adipogenesis, complete confluent cells were cultured in adipogenesis induction medium containing 1 μM dexamethasone, 0.2 mM indomethacin, 0.01 mg/ml insulin, 0.5 mM 3-isobutyl-1-methyl-xanthine, 0.05 units/ml of penicillin, 0.05 μg/ml of streptomycin, and 10% fetal bovine serum in the presence and absence of protease inhibitors for 3 days followed by three days of culture in maintenance media. After three cycles of induction and maintenance, cells were cultured in maintenance media for additional 7 days with two changes of fresh media.
(§5) After differentiation, cells were collected, and lysed into 1×RIPA buffer. Protein concentrations were determined using Bio-Rad Dc protein assay system according to the manufacturer (Bio-Rad, Hercules, Calif.). Equal amount of proteins were separated on 7% SDS-PAGE for detecting IR and IGF-1R, 12% SDS-PAGE for detecting cathepsins S, K, and L antigens. Both IR and IGF-1R primary polyclonal antibodies were raised from goat and all cathepsin antibodies were polyclonal antibodies raised from rabbit. The corresponding HRP-conjugated secondary antibodies were used for detections.
To test which cathepsin is involved in the IR turnover, human preadipocytes (BioWhittaker, Walkersville, Md.) were induced to become adipocytes in the presence and absence of inhibitors. Differentiated adipocytes expressed more IR than controls as previously reported. Pederson et al. (2000) Biochem. Biophys. Res. Commun. 276:162-168. Cathepsin B inhibitor (CA 074, 10 μM) and catepsin S inhibitor (CLIK 060, 2 μM) had no effect on either IR turnover or differentiation (FIGS. 2). […] The same is true when the blot was tested with insulin like growth factor I receptor (IGF-IR) antibodies (FIG. 3).

[8] = test system: insulin like growth factor I receptor (IGF-IR); assay: IGF-IR levels in human preadipocytes, Western blot; assay type: cell-based
Method: FIG. 3. […] Cells were treated as in FIG. 2. Western blot analysis was performed using goat anti-human IGF-1R polyclonal antibodies.
as §4, §5
To test which cathepsin is involved in the IR turnover, human preadipocytes (BioWhittaker, Walkersville, Md.) were induced to become adipocytes in the presence and absence of inhibitors. Differentiated adipocytes expressed more IR than controls as previously reported. Pederson et al. (2000) Biochem. Biophys. Res. Commun. 276:162-168. Cathepsin B inhibitor (CA 074, 10 μM) and catepsin S inhibitor (CLIK 060, 2 μM) had no effect on either IR turnover or differentiation (FIGS. 2). […]

[9] = test system: CCAAT/enhancer-binding protein-α (C/EBP-α); assay: C/EBP-α levels in human preadipocytes, Western blot; assay type: cell-based; details: human preadipocytes differentiated with inhibitor, FIG. 4
Method: FIG. 4. Inhibition of cathepsin L blocked the expression of CCAAT/enhancer-binding protein. Human preadipocytes were differentiated as in FIG. 2. A 10% gel was used to perform Western blot analysis using goat anti-human C/EBP-α polyclonal antibodies and the blot was detected using the corresponding HRP-conjugated secondary antibodies.
as §4
(§6) To evaluate the cell differentiation levels affected by aforementioned inhibitors, the levels of transcription factors CCAAT/enhancer-binding protein-α (C/EBP-α) as well as peroxisome proliferator-activated receptor-γ (PPAR-γ) from cells treated with and without inhibitors were measured. Both C/EBP-α and PPAR-γ are important adipocyte determination factors. Wu et al. (1999) Mol. Cell. 3:151-158; Tanaka et al. (1997) EMBO J. 16:7432-7443; and Tontonoz et al. (1994) Cell 79:1147-1156.

[10] = test system: peroxisome proliferator-activated receptor-γ (PPAR-γ); assay: PPAR-γ levels in human preadipocytes, Western blot; assay type: cell-based; details: human preadipocytes differentiated with inhibitor, FIG. 5
Method: FIG. 5. Inhibition of cathepsin L blocked the expression of PPAR-γ. Human preadipocytes were used and Western blot analysis was performed as in FIG. 4 instead of using mouse anti-human PPAR-γ monoclonal antibodies as the primary antibodies.
as §4, §6

[11] = test system: human preadipocytes; assay: Human preadipocyte adipogenesis, oil-red staining; assay type: cell-based; details: for inhibition of adipogenesis / differentiation: 10 μM; for inhibition of adipogenesis / differentiation / effect on adipogenesis: human preadipocytes
Method: FIG. 6. Oil-red staining of human preadipocytes and adipocytes.
as §4
This hypothesis is further confirmed by oil-red staining of CLIK 148 or 195 treated preadipocytes (FIG. 6). In addition, inhibition of adiogenesis by these two inhibitors is dose dependent. Less than 50% of adipogenesis was blocked by 1 μM of such inhibitors. […] In contrast, 1 μM of CLIK 060, 1 or 10 μM of CA 074 had no effect on adipogenesis (data not shown). Therefore, these observations indicate that cathepsin L appears to play a more critical role than cathepsins S and K in adipogenesis by controlling insulin/IR complex turnover.

[12] = biological target: cathepsin S (Mus musculus, UniProt O70370); assay: Cysteine protease active site labeling in mouse peritoneal macrophages: cathepsin S; assay type: cell-based; parameters: endogenous in cells; host or cells: thioglycolate-elicited mouse peritoneal macrophages
Method: as §1, §2
First, the synthetic small molecule compounds were tested for their selectivity toward different forms of cathepsin. Mouse peritoneal macrophages were cultured in the presence of selective inhibitors and cysteine protease active site labeling probe [^125I]-Z-Tyr-Ala-CHN2 (Sukhova et al., supra). […] In contrast, other inhibitors used had no effect on cathepsin B activity. […]

T3 sequence (P06797 114-334): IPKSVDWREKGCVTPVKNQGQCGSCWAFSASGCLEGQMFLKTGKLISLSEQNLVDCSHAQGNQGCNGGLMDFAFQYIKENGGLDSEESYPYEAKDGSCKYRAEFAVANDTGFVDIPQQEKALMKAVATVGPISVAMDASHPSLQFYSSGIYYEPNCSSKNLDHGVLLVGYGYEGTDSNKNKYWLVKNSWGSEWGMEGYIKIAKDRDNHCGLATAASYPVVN
Cathepsin L, sequence (P07711 114-333, species assumed): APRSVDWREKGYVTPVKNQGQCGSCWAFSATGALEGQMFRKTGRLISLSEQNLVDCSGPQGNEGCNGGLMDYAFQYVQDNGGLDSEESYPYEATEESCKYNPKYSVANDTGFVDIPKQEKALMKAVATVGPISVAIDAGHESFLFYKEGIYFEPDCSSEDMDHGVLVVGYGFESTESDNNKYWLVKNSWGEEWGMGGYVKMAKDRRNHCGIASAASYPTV
T2 sequence (P10605 80-333 limits assumed): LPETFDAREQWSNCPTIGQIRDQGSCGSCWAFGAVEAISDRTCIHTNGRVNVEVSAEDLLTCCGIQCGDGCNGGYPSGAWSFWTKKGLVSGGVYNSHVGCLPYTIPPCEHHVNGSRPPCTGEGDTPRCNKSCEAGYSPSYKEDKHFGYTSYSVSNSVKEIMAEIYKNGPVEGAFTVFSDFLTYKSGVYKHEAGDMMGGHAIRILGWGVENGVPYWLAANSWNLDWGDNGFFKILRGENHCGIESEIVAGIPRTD

## CC(C)CC(NC(=O)[C@H](CC(C)C)NC(=O)OCc1ccccc1)C(=O)COCc1ccc(-c2ccccc2)cc1 (some centres unmarked)
[1]
  Ki: 1310 nM
[2]
  Ki: 63 nM
[3]
  Ki: 22 nM

## O=C(N[C@@H](Cc1ccc2ccccc2c1)C(=O)N[C@H]1CCCN(S(=O)(=O)c2ccccn2)CC1=O)c1cccc2cccnc12
[3]
  Ki: 420 to 503 nM

## O=C(N[C@@H](Cc1ccc2ccccc2c1)C(=O)N[C@H]1CCCN(S(=O)(=O)c2ccccn2)CC1=O)c1cccc2ccccc12
[3]
  Ki: 420 to 503 nM

## O=C[C@@H](Cc1ccc(O)cc1)NC(=O)[C@H](Cc1ccccc1)NC(=O)OCc1ccccc1 (Cbz-Phe-[dY]-aldehyde)
[2]
  Cathepsin L selectivity, in words: Cathepsin L. Selective (Woo et al. Bioorg. Med. Chem. 5, 1501, 1995)

## CN(C)C(=O)[C@H](Cc1ccccc1)NC(=O)[C@H]1O[C@@H]1C(=O)N[C@@H](Cc1ccccc1)C(=O)N(C)C (relative stereo) [CLIK 195, L-(+)-(2S, 3S)-Bis-(Na-amino-L-phenylalaninedimethylamide)-trans-epoxysuccinamide]
[4]; 10 μM
  cathepsin B activity (active site labeling): not
[5]; 10 μM, mouse peritoneal macrophages
  cathepsin L activity (active site labeling): completely inhibited
[6]; 10 μM
  cathepsin K activity (active site labeling): not
[7]; 10 μM, human preadipocytes
  levels of 95 kDa IR β subunit and its precursor: increased levels
[8]; 10 μM
  levels of IGF-IR β subunit and its precursor (the same as for IR): increased levels
[9]
  accumulation of 50 kDa C/EBP-α: blocking the accumulation
[10]
  accumulation of 50 kDa PPAR-γ: blocking the accumulation
[11]
  inhibition of adipogenesis / differentiation: complete inhibition
[11]; listed as 195
  inhibition of adipogenesis / differentiation: completely blocked

## CN(C)C(=O)[C@H](Cc1ccccc1)NC(=O)C1OC1C(=O)NC(CCCCN)C(=O)Nc1ccccc1.Cl (stereo in doubt) [CLIK 060, N-{L-3-trans[(1-phenylcarbamoyl-5-amino)pentylcarbamoyl]oxirane-2-carbonyl}-L-phenylalaninoldimethylamide hydrochloride]
[5]; 2-10 μM, mouse peritoneal macrophages
  cathepsin L activity (active site labeling): affected at some level
[5]; 10-15 μM, FIG. 1
  cathepsin L activity (active site labeling): blocked
[7]; 2 μM
  IR turnover: no effect
[7]; 10-15 μM, human preadipocytes
  IR accumulation: IR accumulation
[11]; 1 μM
  effect on adipogenesis: no effect
[11]; 2 μM
  differentiation of human preadipocytes: no effect
[11]; 10-15 μM (higher concentrations)
  effect on adipogenesis: adipogenesis inhibition
[12]; 2-10 μM
  cathepsin S activity (active site labeling): significantly inhibited

## CCCNC(=O)[C@H]1O[C@@H]1C(=O)N[C@H](C(=O)N1CCC[C@H]1C(=O)O)[C@@H](C)CC [CA 074]
[4]; 2 μM
  cathepsin B activity (active site labeling): completely blocked
[5]; 2 μM, mouse peritoneal macrophages
  cathepsin L activity (active site labeling): remain intact
[6]; 2 μM
  cathepsin K activity (active site labeling): remain intact
[7]; 10 μM
  IR turnover: no effect
[11]; 1 μM
  effect on adipogenesis: no effect
[11]
  inhibition of adipogenesis / differentiation: no effect
[11]; 10-20 μM
  effect on adipogenesis: no effect
[12]; 2 μM
  cathepsin S activity (active site labeling): remain intact

## CCOC(=O)[C@H]1O[C@@H]1C(=O)N[C@@H](CC(C)C)C(=O)NCCC(C)C [E64d]
[7]; 20 μM, human preadipocytes
  levels of 95 kDa IR β subunit and its precursor: increased levels
[8]; 20 μM
  levels of IGF-IR β subunit and its precursor (the same as for IR): increased levels
[9]
  accumulation of 50 kDa C/EBP-α: blocking the accumulation
[10]
  accumulation of 50 kDa PPAR-γ: blocking the accumulation
